# Source: article PMC5971061, “Differential Effects of Linkers on the Activity of Amphiphilic Tobramycin Antifungals” (Molecules : A Journal of Synthetic Chemistry and Natural …, 2018)
# Tests used:
# Hemolytic activity assay = assay type: cell-based, murine; settings: mouse, murine red blood cells (mRBCs), mRBCs, 37 °C 1 h, ± SDEV
# Method: (§1) The hemolytic activity of compounds 3, 4, 7a, 7b, and 9 as well as the parent compound TOB was determined by using previously described methods with minor modifications. Murine whole blood (1 mL) was suspended in 4 mL of PBS and centrifuged at 1000 rpm for 10 min at room temperature to obtain murine red blood cells (mRBCs). The mRBCs were washed four times in PBS and resuspended in the same buffer to a final concentration of 10^7 erythrocytes/mL. Two-fold serial dilutions of compounds 3, 4, 7a, 7b, and 9 were prepared using 100 μL of PBS buffer in Eppendorf tubes followed by the addition of 100 μL of mRBC suspension that made the final concentration of compounds and mRBCs to be 0.48–62.5 μg/mL and 5 × 10^6 erythrocytes/mL, respectively. The tubes were incubated at 37 °C for 1 h. The tubes with PBS buffer (200 μL) and Triton X-100® (1% v/v, 2 μL) served as the negative (blank) and positive controls, respectively. The percentage of hemolysis was calculated using the following equation: % hemolysis = [(absorbance of sample) − (absorbance of blank)] × 100/(absorbance of positive control).
# [1] = test system: murine red blood cells (mRBCs); test: Hemolytic activity assay; assay type: cell-based; settings: 62.5 μg/mL, mRBCs, 37 °C 1 h, ± SDEV
# Method: as §1
# [2] = test system: Cryptococcus neoformans clinical isolate CN3; test: MIC, broth microdilution (CLSI M27-A3), CN3; assay type: cell-based; settings: MIC-0, CN3, 35 °C 48 h
# Method: (§2) The final concentrations of compounds 3, 4, 7a, 7b, 9, and 16, as well as that of TOB tested in this study ranged from 0.24–62.5 μg/mL. CAS was used as a positive control and the final concentrations tested for CAS ranged from 0.03–31.3 μg/mL. Briefly, overnight yeast cultures were grown in yeast peptone dextrose (YPD) broth and the cell density was adjusted to an OD600 of 0.12 (~1 × 10^6 CFU/mL) by using a spectrophotometer. Yeast cell suspensions were further diluted to achieve 1–5 × 10^3 CFU/mL in RPMI 1640 medium, and 100 μL of these yeast cells was added to 96-well microtiter plates containing RPMI 1640 medium and titrated compounds. Each test was performed in triplicate. The plates were incubated at 35 °C for 48 h.
# [3] = test system: Candida krusei ATCC 6258 (strain I); test: MIC, broth microdilution (CLSI M27-A3), yeast strain I; assay type: cell-based; settings: Pichia kudriavzevii, ATCC6258; MIC-0, strain I, 35 °C 48 h
# Method: as §2
# [4] = test system: Candida glabrata clinical isolate CG3; test: MIC, broth microdilution (CLSI M27-A3), CG3; assay type: cell-based; settings: Nakaseomyces glabratus; MIC-0, CG3, 35 °C 48 h
# Method: as §2
# [5] = test system: Candida parapsilosis clinical isolate CP2; test: MIC, broth microdilution (CLSI M27-A3), CP2; assay type: cell-based; settings: Lodderomyces parapsilosis; MIC-0, CP2, 35 °C 48 h
# Method: as §2
# [6] = test system: Cryptococcus neoformans clinical isolate CN2; test: MIC, broth microdilution (CLSI M27-A3), CN2; assay type: cell-based; settings: MIC-0, CN2, 35 °C 48 h
# Method: as §2
# [7] = test system: Candida glabrata ATCC 2001 (strain H); test: MIC, broth microdilution (CLSI M27-A3), yeast strain H; assay type: cell-based; settings: Nakaseomyces glabratus, ATCC2001; MIC-0, strain H, 35 °C 48 h
# Method: as §2
# [8] = test system: C. albicans ATCC MYA-1237(R) (strain F); test: MIC, broth microdilution (CLSI M27-A3), yeast strain F; assay type: cell-based; settings: Candida albicans; MIC-0, strain F, 35 °C 48 h
# Method: as §2
# [9] = test system: Cryptococcus neoformans clinical isolate CN1; test: MIC, broth microdilution (CLSI M27-A3), CN1; assay type: cell-based; settings: MIC-0, CN1, 35 °C 48 h
# Method: as §2
# [10] = test system: C. albicans ATCC 10231 (strain A); test: MIC, broth microdilution (CLSI M27-A3), yeast strain A; assay type: cell-based, Candida albicans
# Method: as §2
# [11] = test system: Candida parapsilosis clinical isolate CP3; test: MIC, broth microdilution (CLSI M27-A3), CP3; assay type: cell-based; settings: MIC-0, CP3, 35 °C 48 h
# Method: as §2
# [12] = test system: Candida parapsilosis clinical isolate CP1; test: MIC, broth microdilution (CLSI M27-A3), CP1; assay type: cell-based; settings: Lodderomyces parapsilosis; MIC-0, CP1, 35 °C 48 h
# Method: as §2
# [13] = test system: Candida parapsilosis ATCC 22019 (strain J); test: MIC, broth microdilution (CLSI M27-A3), yeast strain J; assay type: cell-based; settings: Lodderomyces parapsilosis, ATCC22019; MIC-0, strain J, 35 °C 48 h
# Method: as §2
# [14] = test system: Aspergillus nidulans ATCC 38163 (strain L); test: MIC, filamentous fungi (CLSI M38-A2), strain L; assay type: cell-based; settings: Aspergillus nidulans, ATCC38163, 72 h, MIC-0, strain L, 35 °C 72 h; read-out: MIC
# Method: (§3) The spores were harvested from sporulating cultures growing on potato dextrose agar (PDA) by filtration through sterile glass wool and enumerated by using a hemocytometer (Hausser Scientific, Horsham, PA, USA) to obtain the desired inoculum size. Two-fold serial dilutions of compounds 3, 4, 7a, 7b, 9, and 16, as well as CAS and TOB were made in sterile 96-well microtiter plates to obtain the final concentration range of 0.24–62.5 μg/mL for TOB and TOB derivatives as well as 0.03–31.3 μg/mL for CAS in the RPMI 1640 medium. The spore suspensions were added to the wells to afford a final concentration of 5 × 10^5 spores/mL. The plates were incubated at 35 °C for 72 h. […] Each test was performed in triplicate.
# [15] = test system: seven C. albicans strains (A-G); test: MIC across the panel of seven C. albicans strains; assay type: cell-based; settings: Candida albicans; across all seven C. albicans strains tested
# Method: as §2
# [16] = test system: Aspergillus terreus ATCC MYA-3633 (strain M); test: MIC, filamentous fungi (CLSI M38-A2), strain M; assay type: cell-based; settings: MIC-0, strain M, 35 °C 72 h
# Method: as §3
# [17] = test system: C. albicans ATCC 64124 (strain B); test: MIC, broth microdilution (CLSI M27-A3), yeast strain B; assay type: cell-based; settings: Candida albicans, ATCC64124; MIC-0, strain B, 35 °C 48 h
# Method: as §2
# [18] = test system: Candida glabrata clinical isolate CG2; test: MIC, broth microdilution (CLSI M27-A3), CG2; assay type: cell-based; settings: Nakaseomyces glabratus; MIC-0, CG2, 35 °C 48 h
# Method: as §2
# [19] = test system: Candida glabrata clinical isolate CG1; test: MIC, broth microdilution (CLSI M27-A3), CG1; assay type: cell-based; settings: Nakaseomyces glabratus; MIC-0, CG1, 35 °C 48 h
# Method: as §2
# [20] = test system: C. albicans ATCC MYA-1003(R) (strain G); test: MIC, broth microdilution (CLSI M27-A3), yeast strain G; assay type: cell-based; settings: Candida albicans; MIC-0, strain G, 35 °C 48 h
# Method: as §2
# [21] = test system: Aspergillus flavus ATCC MYA-3631 (strain K); test: MIC, filamentous fungi (CLSI M38-A2), strain K; assay type: cell-based; settings: Aspergillus flavus, 72 h, MIC-0, strain K, 35 °C 72 h; read-out: MIC
# Method: as §3
# [22] = test system: C. albicans ATCC MYA-2310(S) (strain E); test: MIC, broth microdilution (CLSI M27-A3), yeast strain E; assay type: cell-based; settings: Candida albicans; MIC-0, strain E, 35 °C 48 h
# Method: as §2
# [23] = test system: nine non-albicans Candida strains (H-J, CG1-3, CP1-3); test: MIC across the panel of nine non-albicans Candida strains; assay type: cell-based, Candida glabrata, Candida krusei, Candida parapsilosis
# Method: as §2
# [24] = test system: C. albicans ATCC 90819(R) (strain D); test: MIC, broth microdilution (CLSI M27-A3), yeast strain D; assay type: cell-based; settings: Candida albicans, ATCC90819; MIC-0, strain D, 35 °C 48 h
# Method: as §2
# [25] = test system: C. albicans ATCC MYA-2876(S) (strain C); test: MIC, broth microdilution (CLSI M27-A3), yeast strain C; assay type: cell-based; settings: Candida albicans; MIC-0, strain C, 35 °C 48 h
# Method: as §2
# [26] = test system: C. neoformans (strain CN1); test: Time-kill assay, CN1; assay type: cell-based, Cryptococcus neoformans; settings: controls TOB 15.6 μg/mL and VOR 1× MIC, 24-h period
# Method: (§4) Time-kill assays were used to assess the inhibitory efficiency of 7b against three yeast strains, C. albicans ATCC 10231 (strain A), C. parapsilosis ATCC 22019 (strain J), and C. neoformans clinical isolate CN1. The protocol for time-kill assays followed methods previously described with minor modifications. Yeast cultures were grown overnight in YPD broth at 35 °C with shaking (200 rpm). A working stock of fungal cells was made by diluting cultures in RPMI 1640 medium to an OD600 of 0.125, approximately 1 × 10^6 CFU/mL. From the working stock, 100 μL of cells was added to 4.9 mL of RPMI 1640 medium in sterile culture tubes, making the starting fungal cell concentration […]. Compounds were then added to the fungal cells. The treatment conditions included sterile control, growth control, TOB (parent; negative control), voriconazole (VOR) at 1× MIC (positive control), 7b at 1× and 4× MIC. The treated fungal cultures were incubated at 35 °C with shaking (200 rpm) for 24 h. The samples were taken from the different treatments at regular time points (0, 3, 6, 9, 12, and 24 h.) and plated in duplicates. For each time point, cultures were vortexed, 100 μL of culture was aspirated, and 10-fold serial dilutions were made in sterile ddH2O. From the appropriate dilutions, 100 μL of fungal suspension was spread on PDA plates and incubated at 35 °C for 48 h before the colony counts were determined. At 24 h, 50 μL of 1 mM resazurin was added to the treatments and incubated at 35 °C with rotation for 2 h in the dark for visual inspection. Experiments were performed in duplicate.
# [27] = test system: C. albicans ATCC 10231 (strain A); test: Time-kill assay, strain A; assay type: cell-based, Candida albicans
# Method: as §4
smiles,measurement,setting,value
"C[C@@H]1[C@H](O)[C@@H](C)/C=C/C=C/C=C/C=C/C=C/C=C/C=C/[C@H](O[C@@H]2O[C@H](C)[C@@H](O)[C@H](N)[C@@H]2O)C[C@@H]2O[C@](O)(C[C@@H](O)C[C@@H](O)[C@H](O)CC[C@@H](O)C[C@@H](O)CC(=O)O[C@H]1C)C[C@H](O)[C@H]2C(=O)O [AmB, amphotericin B, reference compound]","hemolysis at 1 h, 0.48 μg/mL",Hemolytic activity assay; 0.48 μg/mL,0%
same,"hemolysis at 1 h, 0.975 μg/mL",Hemolytic activity assay; 0.975 μg/mL,0%
same,"hemolysis at 1 h, 1.95 μg/mL",Hemolytic activity assay; 1.95 μg/mL,1.7 ± 0.1%
same,"hemolysis at 1 h, 3.9 μg/mL",Hemolytic activity assay; 3.9 μg/mL,3.4 ± 0.6%
same,"hemolysis at 1 h, 7.8 μg/mL",Hemolytic activity assay; 7.8 μg/mL,3.7 ± 0.7%
same,"hemolysis at 1 h, 15.6 μg/mL",Hemolytic activity assay; 15.6 μg/mL,31.9 ± 5.7%
same,"hemolysis at 1 h, 31.3 μg/mL",Hemolytic activity assay; 31.3 μg/mL,80.2 ± 8.5%
same,% hemolysis,[1],90.3 ± 5.7%
"CCCCCCCCCCCCOCC1OC(OC2C(N)CC(N)C(OC3OC(CN)C(O)CC3N)C2O)C(O)C(N)C1O [Compound 16, O-3-Amino-3-deoxy-6-O-dodecyl-α-D-glucopyranosyl-(1→6)-O-[2,6-diamino-2,3,6-trideoxy-α-D-ribo-hexopyranosyl-(1→4)]-2-deoxy-D-streptamine]",MIC,[2],3.9 µg/mL
same,MIC,[3],31.3 µg/mL
same,MIC,[4],62.5 µg/mL
same,MIC,[5],62.5 µg/mL
same,MIC,[6],0.975 µg/mL
same,MIC,[7],62.5 µg/mL
same,MIC,[8],62.5 µg/mL
same,MIC,[9],1.95 µg/mL
same,MIC,"[10]; Candida albicans, ATCC10231, MIC-0, strain A, 35 °C 48 h",62.5 µg/mL
same,MIC,[11],62.5 µg/mL
same,MIC,[12],62.5 µg/mL
same,MIC,[13],31.3 µg/mL
same,MIC,[14],3.9 µg/mL
same,MIC,[15],≥ 62.5 µg/mL
same,MIC,[16],> 62.5 µg/mL
same,MIC,[17],62.5 µg/mL
same,MIC,[18],62.5 µg/mL
same,MIC,[19],> 62.5 µg/mL
same,MIC,[20],62.5 µg/mL
same,MIC,[21],> 62.5 µg/mL
same,MIC,[22],62.5 µg/mL
same,MIC,[23],31.3 to 62.5 µg/mL
same,MIC,[24],62.5 µg/mL
same,MIC,[25],> 62.5 µg/mL
"C[C@@H](c1ncncc1F)[C@](O)(Cn1cncn1)c1ccc(F)cc1F [VOR, voriconazole, reference compound]","effect on growth (time-kill, in words)",[26],little to no growth inhibitory effect
same,reduction of CFU,"[27]; 1× MIC (7b 3.9 μg/mL; VOR 1.0 μg/mL), after 9 h of treatment",≥ 2 log10
same,"effect on growth (time-kill, in words)","[27]; 24-h period, TOB 15.6 μg/mL, VOR 1× MIC 1.0 μg/mL",maintained a fungistatic activity up to the 24-h period
same,1× MIC value,"[10]; as used in the time-kill study, strain A",1.0 µg/mL
